Test results from US20240228446A1, “PREPARATION METHOD FOR BICYCLIC COMPOUND AND APPLICATION AS ANTIFUNGAL AGENT” (priority 2021, published 2024).
In brackets after ≈: the same amount, converted by molar mass.

Legend:
[1] = tested on: Candida albicans ATCC MYA-2876; assay: Minimal inhibitory concentration (MIC) test on fungal growth (CLSI M27, yeasts); type: cell-based; conditions: lowest concentration inhibiting growth of yeast by 50%, 35° C., 24 hours, RPMI1640; for MIC: Candida albicans, read-out: MIC Candida albicans ATCC MYA-2876
Procedure, shortened: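 Broth microdilution followed CLSI M27 in RPMI1640 buffered with 0.165 M MOPS, pH 7.0, with a final inoculum of 500–2500 CFU/mL. Eleven 2-fold compound concentrations were tested, and plates were incubated 24 h at 35 °C. MIC was the lowest concentration giving 50% growth inhibition, read visually with optional OD530 assistance.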

[2] = tested on: Aspergillus fumigatus ATCC MYA-4609; assay: Minimal inhibitory concentration (MIC) test on fungal growth (CLSI M38, Aspergillus); type: cell-based; conditions: lowest concentration inhibiting Aspergillus by 100%, 35° C., 48 hours, RPMI1640; for MIC: Aspergillus fumigatus, read-out: MIC Aspergillus fumigatus ATCC MYA-4609
Experimental: • RPMI1640 medium: Brand: Gibco, article number: 31800-014 • Sabouraud dextrose agar (SDA): Brand: Hope Bio, article number: HB0253-81 • Voriconazole: Brand: Adamas, article number: 22105A • Amphotericin B: Brand: AbCam, article number: ab141199
MIC test was conducted in accordance with the guidelines and requirements of CLSI M27 (for yeasts) and M38 (for Aspergillus).
Strain preparation: The strains were inoculated 1 day in advance by streaking on SDA plates with glycerol strains stored at −80° C. The strains were cultured at 35° C. and 40 to 60% humidity for 18 to 24 hours. Streak inoculation of Aspergillus fumigatus and Cryptococcus neoformans was required to be done 3 days and 2 days in advance, respectively.
Preparation of culture medium and compounds: The liquid culture medium RPMI was prepared with pure water, and 0.165 mol/L MOPS was added to adjust the pH to 7.0. The mixture was filtered with a 0.22 μm-membrane filter, sterilized, and stored at 4° C. (no more than 3 months). 0.85% physiological saline was sterilized at 121° C. for 30 min and then stored at room temperature (no more than 1 week). The compounds were dissolved in DMSO to 12.8 mg/mL and stored at −20° C.
For Aspergillus, 5 mL of physiological saline was added to cover the mycelium, and the spores were gently scraped off with a spreader. The spore suspension was then transferred to a sterile test tube. An appropriate amount of spore suspension was taken and counted under a microscope using a hemocytometer. Spore concentration was adjusted to approximately 0.4 to 5×10^4 spores/mL using RPMI1640 medium.
The compound was diluted to the highest 800 μg/mL (or 400 μg/mL) with DMSO, and a 10-step 2-fold gradient dilution was performed, resulting in 11 concentrations. 2 μL of the gradient-diluted compound was transferred to the corresponding wells of a 96-well plate, and then 198 μL of the inoculum was transferred to the test plate. The plate was incubated at 35° C. for 24 hours (Aspergillus fumigatus and Cryptococcus neoformans were incubated for 48 and 72 hours, respectively).
After the incubation, the growth of the fungi was visually observed. The lowest concentration of the compound that inhibited the growth of yeast by 50% (inhibited Aspergillus by 100%) was defined as the minimum inhibitory concentration (MIC, μg/mL). A magnifying glass or reading at OD530 nm could be used to assist in determining the MIC. Photos were taken of the test plates for record keeping.

O[C@H](COc1ccc(C23CC(C(F)(F)[C@](O)(Cn4cnnn4)c4ccc(F)cc4F)(C2)C3)cc1)C(F)(F)F [Compound 51A]
MIC [1]: ≤ 3.9 ng/mL | MIC [2]: 1 µg/mL (≈ 1.83 µM)

COCCCOc1ccc(C23CC(C(F)(F)C(O)(Cn4cnnn4)c4ccc(F)cc4F)(C2)C3)cc1 (stereo not drawn) [Compound 61]
MIC [1]: 16 ng/mL (≈ 0.0316 µM) | MIC [2]: 8 µg/mL (≈ 15.8 µM)

O[C@@H](COc1ccc(C23CC(C(F)(F)[C@](O)(Cn4cnnn4)c4ccc(F)cc4F)(C2)C3)cn1)C(F)(F)F [Compound 97A]
MIC Candida albicans ATCC MYA-2876 [1]: ≤3.9 ng/mL | MIC Aspergillus fumigatus ATCC MYA-4609 [2]: 4 µg/mL (≈ 7.31 µM)

O[C@](Cn1cnnn1)(c1ccc(Cl)cc1F)C(F)(F)C12CC(c3ccc(OCC(F)(F)F)cc3)(C1)C2 [Compound 7B]
MIC [1]: 2000 ng/mL (≈ 3.75 µM) | MIC [2]: 1 µg/mL (≈ 1.88 µM)

O[C@@](Cn1cnnn1)(c1ccc(F)cc1F)C(F)(F)C12CC(c3ccc(OCC(F)F)cc3)(C1)C2 [Compound 22A]
MIC [1]: 7.8 ng/mL (≈ 0.0156 µM) | MIC [2]: 2 µg/mL (≈ 4.01 µM)

O[C@@](Cn1cnnn1)(c1ccc(F)cc1F)C(F)(F)C12CC(c3ccc(OCC4(F)COC4)cc3)(C1)C2 [Compound 121A]
MIC Candida albicans ATCC MYA-2876 [1]: ≤3.9 ng/mL | MIC Aspergillus fumigatus ATCC MYA-4609 [2]: 4 µg/mL (≈ 7.66 µM)

OC(COc1ccc(C23CC(C(F)(F)C(O)(Cn4cnnn4)c4ccc(F)cc4F)(C2)C3)cc1)C1CC1 (stereo not drawn) [Compound 144]
MIC [1]: 7.8 ng/mL (≈ 0.015 µM) | MIC [2]: 8 µg/mL (≈ 15.4 µM)

N#Cc1ccc(C23CC(C(F)(F)[C@](O)(Cn4cncn4)c4cc(F)ccc4F)(C2)C3)cc1 [Compound 29A]
MIC [1]: ≤ 3.9 ng/mL | MIC [2]: 1 µg/mL (≈ 2.26 µM)

CC(C)(O)COc1ccc(C23CC(C(F)(F)C(O)(Cn4cncn4)c4ccc(F)cc4F)(C2)C3)cc1 (stereo not drawn) [Compound 37]
MIC [1]: ≤ 3.9 ng/mL | MIC [2]: 2 µg/mL (≈ 3.96 µM)

OC(Cn1cnnn1)(c1ccc(F)cc1F)C(F)(F)C12CC(c3ccc(OCC4(F)COC4)cc3)(C1)C2 (stereo not drawn) [Compound 121]
MIC [1]: 7.8 ng/mL (≈ 0.0149 µM) | MIC [2]: 8 µg/mL (≈ 15.3 µM)

O[C@H](COc1ccc(C23CC(CC(O)(Cn4cncn4)c4ccc(F)cc4F)(C2)C3)cc1)C(F)(F)F (stereo partly drawn) [Compound 90]
MIC [1]: ≤ 3.9 ng/mL | MIC [2]: 0.5 µg/mL (≈ 0.981 µM)

COc1ccc(C23CC(C(F)(F)[C@](O)(Cn4cnnn4)c4ccc(F)cc4F)(C2)C3)cc1 [Compound 1A]
MIC Candida albicans ATCC MYA-2876 [1]: 7.8 ng/mL (≈ 0.0174 µM) | MIC Aspergillus fumigatus ATCC MYA-4609 [2]: 4 µg/mL (≈ 8.92 µM)

O[C@@](Cn1cncn1)(c1ccc(F)cc1F)C(F)(F)C12CC(C1)C2 [Compound 10A]
MIC [1]: ≤ 3.9 ng/mL | MIC [2]: 1 µg/mL (≈ 2.93 µM)

OCC(F)(F)COc1ccc(C23CC(C(F)(F)[C@](O)(Cn4cnnn4)c4ccc(F)cc4F)(C2)C3)cc1 [Compound 50A]
MIC [1]: 7.8 ng/mL (≈ 0.0148 µM) | MIC [2]: 2 µg/mL (≈ 3.78 µM)

OC(Cn1cncn1)(c1ccc(F)cc1F)C(F)(F)C12CC(c3ccc(OCC(F)F)cc3)(C1)C2 (stereo not drawn) [Compound 23]
MIC [1]: ≤ 3.9 ng/mL | MIC [2]: 1 µg/mL (≈ 2.01 µM)

OC(COc1ccc(C23CC(C(F)(F)C(O)(Cn4cnnn4)c4ccc(F)cc4F)(C2)C3)cc1)C(F)F (stereo not drawn) [Compound 137]
MIC [1]: ≤ 3.9 ng/mL | MIC [2]: 8 µg/mL (≈ 15.1 µM)

O[C@H](COc1ccc(C23CC(C(F)(F)[C@@](O)(Cn4cncn4)c4ccc(F)cc4F)(C2)C3)cn1)C(F)(F)F [Compound 98B]
MIC Candida albicans ATCC MYA-2876 [1]: ≤3.9 ng/mL | MIC Aspergillus fumigatus ATCC MYA-4609 [2]: 2 µg/mL (≈ 3.66 µM)

CC(Oc1ccc(C23CC(C(F)(F)C(O)(Cn4cnnn4)c4ccc(F)cc4F)(C2)C3)cc1)C(O)C(F)(F)F (stereo not drawn) [Compound 135]
MIC [1]: 16 ng/mL (≈ 0.0285 µM) | MIC [2]: 8 µg/mL (≈ 14.3 µM)

O[C@@](Cn1cnnn1)(c1ccc(F)cc1F)C(F)(F)C12CC(c3ccc(OCC(F)(F)F)nc3)(C1)C2 [Compound 46A]
MIC Candida albicans ATCC MYA-2876 [1]: 7.8 ng/mL (≈ 0.0151 µM) | MIC Aspergillus fumigatus ATCC MYA-4609 [2]: 2 µg/mL (≈ 3.87 µM)

O[C@@H](COc1ccc(C23CC(C(F)(F)C(O)(Cn4cnnn4)c4cc(F)ccc4F)(C2)C3)cc1)C(F)(F)F (stereo in doubt) [Compound 166]
MIC [1]: 60 ng/mL (≈ 0.11 µM) | MIC [2]: 8 µg/mL (≈ 14.6 µM)

O[C@H](COc1ccc(C23CC(C(F)(F)C(O)(Cn4cnnn4)c4cc(F)ccc4F)(C2)C3)cc1)C(F)(F)F (stereo in doubt) [Compound 165]
MIC [1]: 30 ng/mL (≈ 0.0549 µM) | MIC [2]: 4 µg/mL (≈ 7.32 µM)
